Test results as given in patent US20050130979A1, “Treatment of demyelinating disorders” (Eisai Co., Ltd., priority 1998, published 2005).
“Also recorded” adds a separate entry of the source.

Columns and labels:
Lewis rat acute EAE = assay: Acute-active EAE in Lewis rats (MBP immunisation), clinical disease scoring and weight; type: in vivo; conditions: for Incidence (%) / Incidence (animals with neurological deficit / group): Lewis rat acute EAE; for Duration / Onset / Peak Disease Score / Cumulative Disease Score / Weight Loss: mean; for Peak Disease Score: scale 0-5; for neurological deficits during acute EAE (in words): following treatment; for severity of paralysis during EAE (in words): vs vehicle
Description: Female Lewis rats (205+10 g) obtained from Charles River, Kent, UK, were housed in pairs under environmentally controlled conditions (6:00 a.m.-6:00 p.m. light/dark cycle; 22-24° C.; 45-55% humidity) and allowed free access to food and water. […] Female Biozzi mice (20±5 g) obtained from Harlan, UK, were housed under the conditions described above. Experimental groups consisted of 7-10 animals.
Rats were immunised in each hind foot with 50 μl of inoculum containing 50 μg guinea pig myelin basic protein (MBP, prepared by the method of Dunkley and Carnegie (1974); final concentration […]), emulsified in Freund's complete adjuvant (CFA; Sigma, UK) containing Mycobacterium tuberculosis H37Ra (final concentration 5.5 mg/ml; Difco Laboratories, UK).
Animals were weighed and monitored daily and clinical disease scored as (0) no clinical signs; (1) flaccid tail and weight loss; (2) hind limb hypotonia with further weight loss; (3) complete hind limb paralysis; (4) paraplegia and (5) death. […] During the period of compound administration (10-16 days post immunisation; dpi) animals were scored 15 h after injection of vehicle or NBQX to avoid any acute effect of treatment on disease score.
NBQX was initially dissolved in NaOH and diluted with water. pH was adjusted with HCl. Rats were injected i.p. twice daily (9 a.m. and 5 p.m.) on days 10 to 16 post immunisation with either vehicle or NBQX in the dose of 30 mg/kg. Mice were injected i.p. either twice daily (9 a.m. and 5 p.m.) on days 10 to 16 post immunisation or once daily (9 a.m.) on days 26 to 42 post immunisation with either vehicle or NBQX in the dose of 30 mg/kg.
GYKI53773 was suspended in 5% cremophore in saline. Rats were injected i.p. twice daily (9 a.m. and 5 p.m.) on days 10 to 16 post immunisation with either vehicle or GYKM53773 in the dose of 30 mg/kg.
GYKM52466 was suspended in 5% cremophore in water. Rats were injected i.p. twice daily (9 a.m. and 5 p.m.) on days 10 to 16 post immunisation with either vehicle or GYKI52466 in the dose of 30 mg/kg.
BIIR561 was suspended in 5% cremophore in water. Rats were injected i.p. twice daily (9 a.m. and 5 p.m.) on days 10 to 16 post immunisation with either vehicle or BIIR561 in the dose of 30 mg/kg.
CP465022 was suspended in 5% cremophore in water. Rats were injected i.p. twice daily (9 a.m. and 5 p.m.) on days 10 to 16 post immunisation with either vehicle or CP465022 in the dose of 10 mg/kg.
MPQX was initially dissolved in NaOH and diluted with water. pH was adjusted with HCl. Rats were injected i.p. twice daily (9 a.m. and 5 p.m.) on days 10 to 16 post immunisation with either vehicle or MPQX in the dose of 10 mg/kg.

[1] = test system: chronic EAE in the Biozzi mouse; assay: Chronic-active EAE in Biozzi mice, clinical disease scoring; type: in vivo
[2] = BIIR561 30 mg/kg i.p. twice daily 10-16 dpi
[3] = rats, 30 mg/kg i.p. twice daily 10-16 dpi
[4] = rats, 30 mg/kg i.p. twice daily 10-16 dpi, 30 mg/kg
[5] = CP465022 10 mg/kg i.p. twice daily 10-16 dpi
[6] = rats, 10 mg/kg i.p. twice daily 10-16 dpi
[7] = rats, 10 mg/kg i.p. twice daily 10-16 dpi, 10 mg/kg
[8] = GYKI52466 30 mg/kg i.p. twice daily 10-16 dpi
[9] = MPQX 10 mg/kg i.p. twice daily 10-16 dpi
[10] = NBQX 30 mg/kg i.p. twice daily 10-16 dpi
[11] = 30 mg/kg i.p. twice daily 10-16 dpi
[12] = GYKI53773 30 mg/kg i.p. twice daily 10-16 dpi

For `CN(C)Oc1ccccc1-c1nc(-c2ccccc2)no1` [BIIR561, 5-(2-[N,N-dimethylamino]oxy-phenyl)-3-phenyl-1,2,4-oxadiazol], which “Incidence (%)” value (Lewis rat acute EAE; [2]) is on record?
Its value is “(100) %”.

And the “Incidence (animals with neurological deficit / group)” value (Lewis rat acute EAE; [2])?
The value was 16/16.

What about the Duration (Lewis rat acute EAE; [2]) of the same compound?
Its Duration is 3.9 days.

What about the Onset (Lewis rat acute EAE; n = 16 for BIIR561, 30 mg/kg i.p. twice daily 10-16 dpi) of the same compound?
The Onset was 12.4 d.p.i.

And the “Peak Disease Score” value (Lewis rat acute EAE; [2])?
The value was 2.6.

What about the “Cumulative Disease Score” value (Lewis rat acute EAE; summation of daily scores, BIIR561 30 mg/kg i.p. twice daily 10-16 dpi) of the same compound?
The value was 7.8.

And the “Weight Loss” value (Lewis rat acute EAE; weight on cessation of experiment as percent of maximum weight before disease onset, BIIR561 30 mg/kg i.p. twice daily)?
Its value is 17%.

And the “neurological deficits during acute EAE (in words)” value (Lewis rat acute EAE; rats)?
Its value is “reduced neurological deficits”.

What about the “cumulative disease score relative to vehicle treatment (in words)” value (Lewis rat acute EAE; [3]) of the same compound?
The value was “significantly reduced”.

What about the “peak disease score relative to vehicle treatment (in words)” value (Lewis rat acute EAE; [4]) of the same compound?
The value was “significantly reduced”.

What about the “severity of paralysis during EAE (in words)” value (Lewis rat acute EAE; [3]) of the same compound?
The value was “redcues the severity of paralysis”.

What does the source list for `CCN(CC)Cc1cccc(C=Cc2nc3ccc(F)cc3c(=O)n2-c2ccccc2Cl)n1` [CP465022, 3-(2-chlorophenyl)-2-[2-[6-[(diethylamino)methyl]-2-pyridinyl]ethenyl]-6-fluoro-4(3H)-quinazolinone]?
Incidence (%) (Lewis rat acute EAE; [5]): (89) %; Incidence (animals with neurological deficit / group) (Lewis rat acute EAE; [5]): 8/9; Duration (Lewis rat acute EAE; [5]): 3.4 days; Onset (Lewis rat acute EAE; n = 8 for CP465022, 10 mg/kg i.p. twice daily 10-16 dpi): 13.4 d.p.i.; Peak Disease Score (Lewis rat acute EAE; [5]): 2.0; Cumulative Disease Score (Lewis rat acute EAE; summation of daily scores, CP465022 10 mg/kg i.p. twice daily 10-16 dpi): 7.2; Weight Loss (Lewis rat acute EAE; weight on cessation of experiment as percent of maximum weight before disease onset, CP465022 10 mg/kg i.p. twice daily): 20%; neurological deficits during acute EAE (in words) (Lewis rat acute EAE; rats): reduced neurological deficits; cumulative disease score relative to vehicle treatment (in words) (Lewis rat acute EAE; [6]): reduced; disease duration relative to vehicle treatment (in words) (Lewis rat acute EAE; [6]): reduced; disease onset relative to vehicle treatment (in words) (Lewis rat acute EAE; [6]): significantly delayed; peak disease score relative to vehicle treatment (in words) (Lewis rat acute EAE; [7]): significantly reduces; also recorded: reduced; severity of paralysis during EAE (in words) (Lewis rat acute EAE; [6]): reduces the severity of paralysis

What does the source list for `CC1=NN=C(c2ccc(N)cc2)c2cc3c(cc2C1)OCO3` [GYKI52466, 1-(-aminophenyl)-4-methyl-7,8-methylene-dioxy-5H-2,3-benzodiazepine]?
Incidence (%) (Lewis rat acute EAE; [8]): (60) %; Incidence (animals with neurological deficit / group) (Lewis rat acute EAE; [8]): 15/16; Duration (Lewis rat acute EAE; [8]): 4.0 days; Onset (Lewis rat acute EAE; n = 15, GYKI52466 30 mg/kg i.p. twice daily 10-16 dpi): 11.6 d.p.i.; Peak Disease Score (Lewis rat acute EAE; [8]): 2.4; Cumulative Disease Score (Lewis rat acute EAE; summation of daily scores, GYKI52466 30 mg/kg i.p. twice daily 10-16 dpi): 8.0; Weight Loss (Lewis rat acute EAE; weight on cessation of experiment as percent of maximum weight before disease onset, GYKI52466 30 mg/kg i.p. twice daily): 20%; neurological deficits during acute EAE (in words) (Lewis rat acute EAE; rats): reduced neurological deficits; cumulative disease score relative to vehicle treatment (in words) (Lewis rat acute EAE; [3]): significantly reduced; peak disease score relative to vehicle treatment (in words) (Lewis rat acute EAE; [4]): significantly reduced; severity of paralysis during EAE (in words) (Lewis rat acute EAE; [3]): reduces the severity of paralysis

Which results are given for `O=c1[nH]c2cc(C(F)(F)F)c(N3CCOCC3)cc2n(CP(=O)(O)O)c1=O` [MPQX]?
Incidence (%) (Lewis rat acute EAE; [9]): (58) %; Incidence (animals with neurological deficit / group) (Lewis rat acute EAE; [9]): 7/12; Duration (Lewis rat acute EAE; [9]): 1.7 days; Onset (Lewis rat acute EAE; n = 7 for MPQX, 10 mg/kg i.p. twice daily 10-16 dpi): 12.3 d.p.i.; Peak Disease Score (Lewis rat acute EAE; [9]): 1.2; Cumulative Disease Score (Lewis rat acute EAE; summation of daily scores, MPQX 10 mg/kg i.p. twice daily 10-16 dpi): 3.2; Weight Loss (Lewis rat acute EAE; weight on cessation of experiment (18 dpi) as percent of maximum weight before disease onset, MPQX 10 mg/kg i.p. twice daily): 22%; neurological deficits during acute EAE (in words) (Lewis rat acute EAE; rats): reduced neurological deficits; cumulative disease score relative to vehicle treatment (in words) (Lewis rat acute EAE; [6]): reduced; disease duration relative to vehicle treatment (in words) (Lewis rat acute EAE; [6]): reduced; disease onset relative to vehicle treatment (in words) (Lewis rat acute EAE; [6]): significantly delayed; peak disease score relative to vehicle treatment (in words) (Lewis rat acute EAE; [7]): significantly reduces; also recorded: reduced; severity of paralysis during EAE (in words) (Lewis rat acute EAE; [6]): reduces the severity of paralysis

Which results are given for `NS(=O)(=O)c1cccc2c1c([N+](=O)[O-])cc1nc(O)c(O)nc12` [NBQX, 2,3-dihydroxy6-nitro-7-sulfamoylbenzo-(F)quinoxaline]?
Incidence (%) (Lewis rat acute EAE; [10]): (75) %; Incidence (animals with neurological deficit / group) (Lewis rat acute EAE; [10]): 4/10; onset of weight loss (Lewis rat acute EAE; NBQX 30 mg/kg i.p. twice daily 10-16 dpi, p<0.01): 13 dpi; rats in which development of paralysis was completely prevented (Lewis rat acute EAE; NBQX 30 mg/kg i.p. twice daily from day 10 to 16 post immunisation): 6 out of 10; Duration (Lewis rat acute EAE; [11]): 1.5 days; Onset (Lewis rat acute EAE; n = 4 for NBQX, 30 mg/kg i.p. twice daily 10-16 dpi): 11.8 d.p.i.; Peak Disease Score (Lewis rat acute EAE; [11]): 0.7; Cumulative Disease Score (Lewis rat acute EAE; summation of individual daily disease scores, 30 mg/kg i.p. twice daily 10-16 dpi): 2.4; Weight Loss (Lewis rat acute EAE; weight on cessation of treatment (16 dpi) as percent of maximum weight before disease onset, 30 mg/kg i.p. twice daily): 14%; neurological deficits during acute EAE (in words) (Lewis rat acute EAE; rats): reduction in neurological deficits; cumulative disease score relative to vehicle treatment (in words) (Lewis rat acute EAE; [3]): significantly reduced; disease duration relative to vehicle treatment (in words) (Lewis rat acute EAE; [3]): significantly reduced; peak disease score relative to vehicle treatment (in words) (Lewis rat acute EAE; [4]): significantly reduced; severity of paralysis during EAE (in words) (Lewis rat acute EAE; [3]): reduces severity of paralysis; weight loss during the course of EAE (in words) (Lewis rat acute EAE; rats, NBQX 30 mg/kg i.p. twice daily 10-16 dpi, up to cessation of treatment (16 dpi)): reduces weight loss; also recorded: decreasing the percent body weight lost; disease severity between dpi 28 to 48 (in words) ([1]; Biozzi mice, NBQX 30 mg/kg i.p. once daily for 17 days commencing on dpi 26, P<0.05): reduced disease severity; disease severity between dpi 10 to 48 (in words) ([1]; Biozzi mice, NBQX 30 mg/kg i.p. twice daily for 7 days starting on dpi 10, P<0.001): improved neurological outcome reducing disease severity; severity of paralysis during chronic EAE (in words) ([1]; NBQX 30 mg/kg i.p., twice daily 10-16 dpi (A) or once daily 26-42 dpi (B)): reduces the severity of paralysis; neurological deficit during chronic EAE (in words) ([1]; mice, following treatment): reduction in neurological deficit

Which “Incidence (%)” value (Lewis rat acute EAE; [12]) does the source give for “(−)1-(4-aminophenyl)-4-methyl-7,8-methylenedioxy-4,5-dihydro-^3-methylcarbamoyl-2,3-benzodiazepine [GYKI53773]” here?
The value was “(60) %”.

And the “Incidence (animals with neurological deficit / group)” value (Lewis rat acute EAE; [12])?
The value was 6/10.

What about the Duration (Lewis rat acute EAE; [12]) of the same compound?
Its Duration is 1.9 days.

And the Onset (Lewis rat acute EAE; n = 6 for GYKI53773, 30 mg/kg i.p. twice daily 10-16 dpi)?
Its Onset is 12.7 d.p.i.

And the “Peak Disease Score” value (Lewis rat acute EAE; [12])?
The value was 0.9.

And the “Cumulative Disease Score” value (Lewis rat acute EAE; summation of daily scores, GYKI53773 30 mg/kg i.p. twice daily 10-16 dpi)?
Its value is 2.1.

And the “Weight Loss” value (Lewis rat acute EAE; weight on cessation of experiment (20 dpi) as percent of maximum weight before disease onset, GYKI53773 30 mg/kg i.p. twice daily)?
Its value is 16%.

And the “neurological deficits during acute EAE (in words)” value (Lewis rat acute EAE; rats)?
Its value is “reduced neurological deficits”.

And the “cumulative disease score relative to vehicle treatment (in words)” value (Lewis rat acute EAE; [3])?
Its value is “significantly reduced”.

And the “disease duration relative to vehicle treatment (in words)” value (Lewis rat acute EAE; [3])?
The value was “significantly reduced”.

And the “peak disease score relative to vehicle treatment (in words)” value (Lewis rat acute EAE; [4])?
The value was “significantly reduced”.

And the “peak disease score relative to vehicle treatment (in words)” value (Lewis rat acute EAE; rats, 30 mg/kg i.p. twice daily 10-16 dpi, listed as GYKM53773, 30 mg/kg)?
Its value is “significantly reduces”.

What about the “severity of paralysis during EAE (in words)” value (Lewis rat acute EAE; [3]) of the same compound?
The value was “reduces the severity of paralysis”.
